How the values were obtained:
Experiment in all cases: Histone peptide microarray
Assay type in all cases: binding, human
Conditions in all cases: sheet "Array Heatmap"; GST-tagged reader; histone peptide array, total n = 4
SP140L = system: SP140L
Method in brief: (§1)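 GST-tagged PHD finger readers were expressed, purified and applied at 0.5 μM to a microarray of 293 synthetic histone peptides carrying single or combinatorial PTMs, using an optimized protocol. Binding signals are averages with standard deviation from 4 replicates.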

DPF2 (PPC2W2) = system: DPF2 (PPC2W2)
Method in brief: as §1

AIRE (PP) = system: AIRE (PP)
Method in brief: as §1

KDM5B (1) = system: KDM5B (1)
Method in brief: as §1

PHF23 = system: PHF23
Method in brief: as §1

PHRF1 (RP) = system: PHRF1 (RP)
Method in brief: as §1

PHF21A = system: PHF21A
Method in brief: as §1

ING5 = system: ING5
Method in brief: as §1

CHD5 (PCC) = system: CHD5 (PCC)
Method in brief: as §1

ING4 = system: ING4
Method in brief: as §1

BPTF (PB) = system: BPTF (PB)
Method in brief: as §1

MORC3 (CW) = system: MORC3 (CW)
Method in brief: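 Steps: express and purify GST-tagged PHD reader; incubate 0.5 μM protein on a peptide microarray (293 histone peptides, single or combined PTMs) following an optimized protocol; average signal across 4 replicates.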

KDM5A (1) = system: KDM5A (1)
Method in brief: as §1

ING3 = system: ING3
Method in brief: as §1

CHD5 (PPCC) = system: CHD5 (PPCC)
Method in brief: as §1

PHF8 = system: PHF8
Method in brief: as §1

ING1 = system: ING1
Method in brief: as §1

PHF13 = system: PHF13
Method in brief: as §1

RAG2 = system: RAG2
Method in brief: as §1

KDM7A = system: KDM7A
Method in brief: as §1

MLL5 = system: MLL5
Method in brief: as §1

KDM5B (3) = system: KDM5B (3)
Method in brief: as §1

DIDO1 = system: DIDO1
Method in brief: as §1

BAZ2B = system: BAZ2B
Method in brief: as §1

CHD4 (PPCC) = system: CHD4 (PPCC)
Method in brief: as §1

KDM5A (3) = system: KDM5A (3)
Method in brief: as §1

TAF3 = system: TAF3
Method in brief: as §1

ING2 = system: ING2
Method in brief: as §1

KDM4C (TTP) = system: KDM4C (TTP)
Method in brief: as §1

TRIM66 (PB) = system: TRIM66 (PB)
Method in brief: as §1

PHF2 = system: PHF2
Method in brief: as §1

Substance | Array Heatmap signal, SP140L (SP140L) | Array Heatmap signal, DPF2 (PPC2W2) (DPF2 (PPC2W2)) | Array Heatmap signal, AIRE (PP) (AIRE (PP)) | Array Heatmap signal, KDM5B (1) (KDM5B (1)) | Array Heatmap signal, PHF23 (PHF23) | Array Heatmap signal, PHRF1 (RP) (PHRF1 (RP)) | Array Heatmap signal, PHF21A (PHF21A) | Array Heatmap signal, ING5 (ING5) | Array Heatmap signal, CHD5 (PCC) (CHD5 (PCC)) | Array Heatmap signal, ING4 (ING4) | Array Heatmap signal, BPTF (PB) (BPTF (PB)) | Array Heatmap signal, MORC3 (CW) (MORC3 (CW)) | Array Heatmap signal, KDM5A (1) (KDM5A (1)) | Array Heatmap signal, ING3 (ING3) | Array Heatmap signal, CHD5 (PPCC) (CHD5 (PPCC)) | Array Heatmap signal, PHF8 (PHF8) | Array Heatmap signal, ING1 (ING1) | Array Heatmap signal, PHF13 (PHF13) | Array Heatmap signal, RAG2 (RAG2) | Array Heatmap signal, KDM7A (KDM7A) | other results
H3R17me1: H3 1-20 [Peptide H3R17me1] | 0.359 | 0.7016 | 0.4567 | 0.6928 | 0.5635 | 0.8251 | 0.4738 | 0.3567 | 0.834 | 0.4637 | 0.345 | 0.4904 | 0.4728 | 0.4855 | 0.5588 | 0.3543 | 0.5598 | 0.6124 | 0.268 | 0.3476 | Array Heatmap signal, MLL5 (MLL5): 0.5956; Array Heatmap signal, KDM5B (3) (KDM5B (3)): 0.5296; Array Heatmap signal, DIDO1 (DIDO1): 0.721; Array Heatmap signal, BAZ2B (BAZ2B): 0.4823; Array Heatmap signal, CHD4 (PPCC) (CHD4 (PPCC)): 0.598; Array Heatmap signal, KDM5A (3) (KDM5A (3)): 0.5587; Array Heatmap signal, TAF3 (TAF3): 0.2696; Array Heatmap signal, ING2 (ING2): 0.6036; Array Heatmap signal, KDM4C (TTP) (KDM4C (TTP)): 0.4745; Array Heatmap signal, TRIM66 (PB) (TRIM66 (PB)): 0.643; Array Heatmap signal, PHF2 (PHF2): 0.5204
H3R17me2a + K18ac (1-25): H3 1-25 | 0.2916 | 0.608 | 0.3677 | 0.6531 | 0.4823 | 0.7492 | 0.3605 | 0.251 | 0.615 | 0.3381 | 0.2769 | 0.4929 | 0.3724 | 0.4176 | 0.4057 | 0.2767 | 0.4981 | 0.4521 | 0.2079 | 0.2298 | Array Heatmap signal, MLL5 (MLL5): 0.4712; Array Heatmap signal, KDM5B (3) (KDM5B (3)): 0.4124; Array Heatmap signal, DIDO1 (DIDO1): 0.5785; Array Heatmap signal, BAZ2B (BAZ2B): 0.3556; Array Heatmap signal, CHD4 (PPCC) (CHD4 (PPCC)): 0.4858; Array Heatmap signal, KDM5A (3) (KDM5A (3)): 0.5578; Array Heatmap signal, TAF3 (TAF3): 0.2141; Array Heatmap signal, ING2 (ING2): 0.5776; Array Heatmap signal, KDM4C (TTP) (KDM4C (TTP)): 0.324; Array Heatmap signal, TRIM66 (PB) (TRIM66 (PB)): 0.6221; Array Heatmap signal, PHF2 (PHF2): 0.4874
H3R17me2a: H3 1-20 [Peptide H3R17me2a] | 0.2774 | 0.5665 | 0.3243 | 0.4837 | 0.499 | 0.5177 | 0.2924 | 0.2247 | 0.5481 | 0.3252 | 0.2765 | 0.4952 | 0.3023 | 0.3691 | 0.3709 | 0.337 | 0.5124 | 0.4423 | 0.3136 | 0.2428 | Array Heatmap signal, MLL5 (MLL5): 0.5506; Array Heatmap signal, KDM5B (3) (KDM5B (3)): 0.4098; Array Heatmap signal, DIDO1 (DIDO1): 0.6933; Array Heatmap signal, BAZ2B (BAZ2B): 0.3052; Array Heatmap signal, CHD4 (PPCC) (CHD4 (PPCC)): 0.4461; Array Heatmap signal, KDM5A (3) (KDM5A (3)): 0.5532; Array Heatmap signal, TAF3 (TAF3): 0.2956; Array Heatmap signal, ING2 (ING2): 0.6139; Array Heatmap signal, KDM4C (TTP) (KDM4C (TTP)): 0.2915; Array Heatmap signal, TRIM66 (PB) (TRIM66 (PB)): 0.5152; Array Heatmap signal, PHF2 (PHF2): 0.6186
H3R17me2s: H3 1-20 [Peptide H3R17me2s] | 0.3428 | 0.6998 | 0.4113 | 0.601 | 0.5417 | 0.8026 | 0.4345 | 0.3275 | 0.7264 | 0.4307 | 0.3293 | 0.5429 | 0.4442 | 0.447 | 0.5108 | 0.3293 | 0.5076 | 0.5969 | 0.2456 | 0.306 | Array Heatmap signal, MLL5 (MLL5): 0.5344; Array Heatmap signal, KDM5B (3) (KDM5B (3)): 0.5222; Array Heatmap signal, DIDO1 (DIDO1): 0.6492; Array Heatmap signal, BAZ2B (BAZ2B): 0.4477; Array Heatmap signal, CHD4 (PPCC) (CHD4 (PPCC)): 0.5449; Array Heatmap signal, KDM5A (3) (KDM5A (3)): 0.5756; Array Heatmap signal, TAF3 (TAF3): 0.274; Array Heatmap signal, ING2 (ING2): 0.6161; Array Heatmap signal, KDM4C (TTP) (KDM4C (TTP)): 0.4268; Array Heatmap signal, TRIM66 (PB) (TRIM66 (PB)): 0.6637; Array Heatmap signal, PHF2 (PHF2): 0.5815

Reference: article PMC6979384, “Characterization of the plant homeodomain (PHD) reader family for their histone tail interactions” (Epigenetics & Chromatin, 2020)
